Laboratory results as given in ChEMBL document CHEMBL3885861, “Open TG-GATES”.

Organism: Rattus norvegicus
Experiment: Open TG-GATES - Regimen: Single
Format: toxicity, organism-based, Sprague-Dawley
Parameters: regimen Single, gender Male, age 6 weeks
Settings: in vivo, po, 3 mg/kg, route gavage, dose level Low; for APTT / Bas / Eos / Fbg / Hb / Ht / Lym / MCH / MCHC / MCV / Mono / Neu / PT / Plat / RBC / Ret / WBC: tissue Blood; for KIDNEY_L / KIDNEY_R / KIDNEY_TOTAL: tissue Kidney; for LIVER: tissue Liver; for A/G / ALP / ALT / AST / BUN / CRE / Ca / Cl / DBIL / GLC / IP / K / LDH / Na / PL / RALB / TBIL / TC / TG / TP / gamma-GTP: tissue Plasma

Compound Nc1c2c(nc3ccccc13)CCCC2 [TACRINE] has a TERMINAL_BW (3 h) of 208.2 g, an APTT (3 h) of 21.3 s and a Bas (3 h) of 0%. The Eos (3 h) was 0.4%, the Fbg (3 h) was 283.8 mg/dL and the Hb (3 h) was 13.4 g/dL. The Ht (3 h) was 39%, the Lym (3 h) was 77% and the MCH (3 h) was 21.5 pg. The MCHC (3 h) was 34.4%, the MCV (3 h) was 62.5 fL and the Mono (3 h) was 2.2%. For the same compound, the Neu (3 h) was 19.4%, the PT (3 h) was 16.1 s and the Plat (3 h) was 120.6 x10_4/uL. For the same compound, the RBC (3 h) was 623.8 x10_4/ul, the Ret (3 h) was 8.2% and the WBC (3 h) was 90.3 x10_2/uL. The KIDNEY_L (3 h) was 0.9 g, the KIDNEY_R (3 h) was 0.9 g and the KIDNEY_TOTAL (3 h) was 1.9 g. The LIVER (3 h) was 9.4 g, the A/G (3 h) was 1.3 and the ALP (3 h) was 1562.6 IU/L. The ALT (3 h) was 45.6 IU/L, the AST (3 h) was 79.6 IU/L and the BUN (3 h) was 13.4 mg/dL. The CRE (3 h) was 0.2 mg/dL, the Ca (3 h) was 10.7 mg/dL and the Cl (3 h) was 107 meq/L. It also gave a DBIL (3 h) of 0.002 mg/dL, a GLC (3 h) of 184.2 mg/dL and an IP (3 h) of 8 mg/dL. It also gave a K (3 h) of 4 meq/L, an LDH (3 h) of 251.6 IU/L and a Na (3 h) of 142.6 meq/L. For the same compound, the PL (3 h) was 139.2 mg/dL, the RALB (3 h) was 3 g/dL and the TBIL (3 h) was 0.024 mg/dL. It also gave a TC (3 h) of 75 mg/dL, a TG (3 h) of 64 mg/dL and a TP (3 h) of 5.4 g/dL. For the same compound, the gamma-GTP (3 h) was 1 IU/L, the TERMINAL_BW (6 h) was 200.8 g and the APTT (6 h) was 20.8 s. It also gave a Bas (6 h) of 0%, an Eos (6 h) of 0.8% and a Fbg (6 h) of 312.8 mg/dL. The Hb (6 h) was 13.6 g/dL, the Ht (6 h) was 39.2% and the Lym (6 h) was 78.8%. It also gave an MCH (6 h) of 21.2 pg, an MCHC (6 h) of 34.6% and an MCV (6 h) of 61.2 fL. The Mono (6 h) was 2.4%, the Neu (6 h) was 17.2% and the PT (6 h) was 15.6 s. It also gave a Plat (6 h) of 125.6 x10_4/uL, an RBC (6 h) of 641 x10_4/ul and a Ret (6 h) of 7.7%. For the same compound, the WBC (6 h) was 102.1 x10_2/uL, the KIDNEY_L (6 h) was 0.9 g and the KIDNEY_R (6 h) was 0.9 g. The KIDNEY_TOTAL (6 h) was 1.8 g, the LIVER (6 h) was 8.7 g and the A/G (6 h) was 1.2. The ALP (6 h) was 1243.4 IU/L, the ALT (6 h) was 34.8 IU/L and the AST (6 h) was 67.2 IU/L. The BUN (6 h) was 11.4 mg/dL, the CRE (6 h) was 0.2 mg/dL and the Ca (6 h) was 10.6 mg/dL. For the same compound, the Cl (6 h) was 106.8 meq/L, the DBIL (6 h) was 0.002 mg/dL and the GLC (6 h) was 175.6 mg/dL. The IP (6 h) was 9 mg/dL, the K (6 h) was 4.4 meq/L and the LDH (6 h) was 200 IU/L. For the same compound, the Na (6 h) was 142 meq/L, the PL (6 h) was 148 mg/dL and the RALB (6 h) was 3.1 g/dL. The TBIL (6 h) was 0.024 mg/dL, the TC (6 h) was 76 mg/dL and the TG (6 h) was 89.6 mg/dL. It also gave a TP (6 h) of 5.5 g/dL, a gamma-GTP (6 h) of 1 IU/L and a TERMINAL_BW (9 h) of 200.1 g. It also gave an APTT (9 h) of 19.8 s, a Bas (9 h) of 0% and an Eos (9 h) of 1%. For the same compound, the Fbg (9 h) was 303.6 mg/dL, the Hb (9 h) was 13.4 g/dL and the Ht (9 h) was 39%. For the same compound, the Lym (9 h) was 78.2%, the MCH (9 h) was 20.9 pg and the MCHC (9 h) was 34.4%. For the same compound, the MCV (9 h) was 60.7 fL, the Mono (9 h) was 2.6% and the Neu (9 h) was 17.8%. It also gave a PT (9 h) of 16.3 s, a Plat (9 h) of 115.2 x10_4/uL and an RBC (9 h) of 643 x10_4/ul. The Ret (9 h) was 7.8%, the WBC (9 h) was 92.4 x10_2/uL and the KIDNEY_L (9 h) was 0.9 g. It also gave a KIDNEY_R (9 h) of 0.9 g, a KIDNEY_TOTAL (9 h) of 1.8 g and an LIVER (9 h) of 8.3 g. The A/G (9 h) was 1.2, the ALP (9 h) was 1371.2 IU/L and the ALT (9 h) was 36 IU/L. For the same compound, the AST (9 h) was 70.6 IU/L, the BUN (9 h) was 12.4 mg/dL and the CRE (9 h) was 0.1 mg/dL. The Ca (9 h) was 10.6 mg/dL, the Cl (9 h) was 107.8 meq/L and the DBIL (9 h) was 0.002 mg/dL. For the same compound, the GLC (9 h) was 181.6 mg/dL, the IP (9 h) was 9.8 mg/dL and the K (9 h) was 4.5 meq/L. For the same compound, the LDH (9 h) was 253.4 IU/L, the Na (9 h) was 141.6 meq/L and the PL (9 h) was 134.4 mg/dL. It also gave an RALB (9 h) of 2.9 g/dL, a TBIL (9 h) of 0.012 mg/dL and a TC (9 h) of 69.8 mg/dL. It also gave a TG (9 h) of 97.8 mg/dL, a TP (9 h) of 5.4 g/dL and a gamma-GTP (9 h) of 1 IU/L. It also gave a TERMINAL_BW (24 h) of 217.8 g, an APTT (24 h) of 21.2 s and a Bas (24 h) of 0%. For the same compound, the Eos (24 h) was 1%, the Fbg (24 h) was 292 mg/dL and the Hb (24 h) was 13.6 g/dL. For the same compound, the Ht (24 h) was 39.7%, the Lym (24 h) was 80.8% and the MCH (24 h) was 21.3 pg. For the same compound, the MCHC (24 h) was 34.2%, the MCV (24 h) was 62.4 fL and the Mono (24 h) was 3%. It also gave a Neu (24 h) of 14.4%, a PT (24 h) of 16.2 s and a Plat (24 h) of 113.1 x10_4/uL. For the same compound, the RBC (24 h) was 636.6 x10_4/ul, the Ret (24 h) was 7.5% and the WBC (24 h) was 92.6 x10_2/uL. It also gave a KIDNEY_L (24 h) of 1 g, a KIDNEY_R (24 h) of 1 g and a KIDNEY_TOTAL (24 h) of 1.9 g. For the same compound, the LIVER (24 h) was 10 g, the A/G (24 h) was 1.3 and the ALP (24 h) was 1864.4 IU/L. For the same compound, the ALT (24 h) was 46.8 IU/L, the AST (24 h) was 80 IU/L and the BUN (24 h) was 15.6 mg/dL. For the same compound, the CRE (24 h) was 0.1 mg/dL, the Ca (24 h) was 10.8 mg/dL and the Cl (24 h) was 107.8 meq/L. For the same compound, the DBIL (24 h) was 0.002 mg/dL, the GLC (24 h) was 197.4 mg/dL and the IP (24 h) was 7.2 mg/dL. For the same compound, the K (24 h) was 4.1 meq/L, the LDH (24 h) was 293.2 IU/L and the Na (24 h) was 141.6 meq/L. For the same compound, the PL (24 h) was 146.8 mg/dL, the RALB (24 h) was 3.1 g/dL and the TBIL (24 h) was 0.032 mg/dL. It also gave a TC (24 h) of 74.4 mg/dL, a TG (24 h) of 107 mg/dL and a TP (24 h) of 5.5 g/dL. The gamma-GTP (24 h) was 1 IU/L.
